Tests used:
[1] = target: T1, Human Recombinant (E. coli) PPARgamma (Homo sapiens, UniProt P37231); assay: PPAR gamma binding assay ([3H]-rosiglitazone)
T1 construct: host or cells: E. coli
T1 sequence (P37231 1-505): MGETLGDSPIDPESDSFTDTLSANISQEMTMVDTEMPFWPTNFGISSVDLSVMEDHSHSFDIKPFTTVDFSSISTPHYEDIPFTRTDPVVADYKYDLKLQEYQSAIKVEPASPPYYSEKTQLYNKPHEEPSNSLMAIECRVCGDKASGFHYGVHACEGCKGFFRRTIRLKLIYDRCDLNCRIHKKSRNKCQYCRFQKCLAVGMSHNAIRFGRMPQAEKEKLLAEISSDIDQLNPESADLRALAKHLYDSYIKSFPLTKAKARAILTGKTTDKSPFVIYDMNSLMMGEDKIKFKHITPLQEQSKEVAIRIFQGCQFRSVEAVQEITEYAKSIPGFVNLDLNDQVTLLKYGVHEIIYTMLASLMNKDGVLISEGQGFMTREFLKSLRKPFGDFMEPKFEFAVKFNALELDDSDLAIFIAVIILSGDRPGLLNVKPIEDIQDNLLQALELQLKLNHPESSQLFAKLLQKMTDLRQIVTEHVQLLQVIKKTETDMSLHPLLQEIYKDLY
Procedure: Human Recombinant (E. coli) PPARgamma) (h) Binding Assay:
The results are expressed as a percent of control specific binding ((measured specific binding/control specific binding)×100) obtained in the presence of the test compounds. The IC50 values (concentration causing a half-maximal inhibition of control specific binding) and Hill coefficients (nil) were determined by non-linear regression analysis of the competition curves generated with mean replicate values using Hill equation curve fitting (Y=D+[(A−D)/(1+(C/C50)nH)], where Y=specific binding, D=minimum specific binding, A=maximum specific binding, C=compound concentration, C50=IC50, and nH=slope factor). This analysis is performed using a software developed at Cerep (Hill software) and validated by comparison with data generated by the commercial software SigmaPlot® 4.0 for Windows® (© 1997 by SPSS Inc.). The inhibition constants (Ki) are calculated using the Cheng Prusoff equation (Ki=IC50/(1+(L/KD)), where L=concentration of radioligand in the assay, and KD=affinity of the radioligand for the receptor).

[2] = system: TP Receptor; assay: TP Receptor Platelet Aggregation - Rabbit (U-46619-induced, platelet rich plasma); format: cell-based, New Zealand Rabbit; details: at 0.1 mM; 1.5 μM U-46619
Procedure: Using these experimental conditions New Zealand Rabbit (2.75±0.25 kg) platelet rich plasma, Vehicle: 0.3% DMSO, Assay: Inhibition of 1.5 μM U-46619-induced platelet aggregation, Incubation Time, Temp: 5 min at 37° C., Incubation Buffer: Trisodium Citrate (0.13 M)-treated platelet rich plasma, Bath Volume: 0.5 mL, Time of Assessment: 5 min, Quantification Method: Optical Density Change. the assay performed according to Patscheke, H., and Stregmeier, K. (1984) Investigations on a selective non-prostanoic thromboxane antagonist, BM13,177, in human platelets. Thrombosis Research 33:277-288
The data were transformed to semi-log and then analysed using non-linear regression to a four-parameter dose-response curve Y=Bottom+(Top−Bottom)/(1+10^((Log EC50−X)*HillSlope)) using the log(agonist) vs. response—Variable slope function of GraphPad Prism software (http://graphpad.com/help/prism5/prism5help.html?usingnonlinear_regression_step_by_s.ht m).

| Structure (SMILES) | conversion of the prodrug to the corresponding acid [1] | binding to PPARgamma ([1]; [3H]-rosiglitazone 10 nM, 120 min at 4° C., compared with the acid of Example 1) | Platelet aggregation Rabbit Inhibition (%) [2] [%] |
| --- | --- | --- | --- |
| COC(=O)CC/C=C\C[C@@H]1COC(c2ccccc2Cl)O[C@@H]1c1ccccc1O (stereo partly drawn) [Prodrug 2] | the prodrug is converted to the corresponding acid | binds to PPARgamma at least as well as the corresponding acid | – |
| COc1ccc(C(=O)NCc2cccnc2)cc1C(=O)NCc1cccnc1 [Picotamide] | – | – | 21 |
